Results reported in article PMC13183915, “A platinum butterfly effect: small changes turn an anticancer drug into a non-toxic metalloantibiotic with in vivo efficacy” (npj Antimicrobials and Resistance, 2026).
In brackets after ≈: the same amount, converted by molar mass. Several values for one entry are separate records, joined by “and”; a condition that tells them apart may be missing. Identical values can stand only once. Like-named read-outs stand apart in the source and are kept apart here.

Experiments:
[1] = test system: B. subtilis bSS82; experiment: Bacterial cytological profiling (BCP); type: cell-based, Bacillus subtilis
From the text: To get an overview of the cellular effects of the compounds, we employed bacterial cytological profiling (BCP). To this end, we used a strain intracellularly expressing green-fluorescent protein (GFP) from the strong, constitutive PrpsD promoter (B. subtilis bSS82[37]), stained with the membrane dye Nile red and the DNA dye DAPI. Combined with phase contrast microscopy, this setup allows simultaneous assessment of cell morphology, cell lysis, pore formation, membrane morphology, and nucleoid morphology in one assay.
BCP was performed according to Wenzel et al.[71]. In short, B. subtilis strain […] (PrpsD-gfp) was grown to an OD600 of 0.3 prior to splitting of parent cultures and addition of antibiotics. Samples were taken for microscopy after 30, 60, and 120 min of antibiotic treatment. Five minutes prior to sampling, cultures were stained with 0.5 µg/mL Nile red and 1 µg/mL DAPI for 5 min. Samples of 0.5 µL were then spotted onto 1% agarose slides[45] and images were taken immediately.
Cell length and DAPI intensity were analyzed using MicrobeJ[73]. To this end, the fit shape, rod-shaped setting was used with a minimum area of 0.5 µm, while all other settings remained at default. B. subtilis chains were seperated based on the membrane stain. Membrane stress was counted using the ObjectJ plugin[74], using the membrane setting to seperate individual cells in chains. Membrane damage was expressed as ratio of cells with visible Nile red foci and total detected cells. DNA compaction was analyzed by determining the area of the DNA and the whole cell are using advanced weka segmentation. Cells were segmented according to the GFP signal. […] Cells that were out of focus or lysed were excluded from the analysis. Statistical analysis was peformed using GraphPad Prism 10 as specified in the individual figure legends.

[2] = test system: HEK293T cells; type: cell-based, Human
Procedure: The control for the experiments was DMSO. HEK293T cells were cultivated in DMEM high glucose supplemented with 10% heat-inactivated fetal bovine serum, 100 U/mL of penicillin and streptomycin and maintained at a temperature of 37 °C with 5% CO2. Initially, 4000/well of cells were seeded into 96-well plates and incubated for 24 h before being exposed to compounds at concentrations ranging from 0.78, 50, and 100 µM. After 24 h of incubation, the compounds were added and serially diluted and incubated for 24 and 48 h at 37 °C 5% CO2, the cells were stained with alamar Blue, and the fluorescence excitation/ emission 540 nm/590 nm was measured using 96 well-plate reader. CC50 is defined as the lowest concentration of compound which leads to a 50% reduction in cell viability compared to untreated and DMSO control. Each experiment was repeated in triplicate.

[3] = test system: RecA-GFP (B. subtilis UG10); experiment: Localization of RecA-GFP (DNA damage reporter); type: cell-based, Bacillus subtilis; settings: Pt1 3.125 µM, Pt8 25 µM, CisPt 100 µM; strongest after 10 min
Procedure: To confirm whether the compounds induce DNA damage in bacterial cells, the localization of RecA was assessed. RecA is part of the bacterial SOS response to DNA damage. It is a DNA-associated protein that recognizes single-stranded DNA, which occurs as a consequence of strand breaks. If strand breaks are present, RecA accumulates at the damaged sites, appearing as foci or elongated structures. Since the RecA response is strongest shortly after stress induction, we additionally examined a 10 min timepoint in this assay.
B. subtilis strains were grown in LB containing appropriate inducer concentrations as specified in Table S10. After reaching an OD600 of 0.3, cultures were split and treated with antibiotics. Samples were withdrawn after 30 and 60 min of treatment, spotted on glass slides covered with 1% agarose films, and immediately imaged.

[4] = test system: Bacillus subtilis MW168; experiment: MIC assay, B. subtilis MW168; type: cell-based
[5] = test system: methicillin-sensitive Staphylococcus aureus (MSSA), clinical isolate; experiment: MIC assay, MSSA clinical isolate; type: cell-based
[6] = test system: methicillin-resistant S. aureus (MRSA) COL; experiment: MIC assay, MRSA COL; type: cell-based, Staphylococcus aureus
[7] = test system: MRSA NRS 192; experiment: Broth microdilution MIC, MRSA NRS 192; type: cell-based, S. aureus; settings: Staphylococcus aureus
Procedure: (§1) The data is given in supporting information (Table S5). Before starting the experiment, a single colony was picked from MHA plate, inoculated in MHBII and incubated overnight at 37 °C with shaking for 18–24 h to get the starter culture. Antibiotic susceptibility testing was conducted according to the CLSI (Clinical & Laboratory Standards Institute) guidelines using the broth microdilution assay. 10 mg/mL stock solutions of test compounds were prepared in DMSO. Bacterial cultures were inoculated in MHBII and optical density (OD) was measured at 600 nm, followed by dilution to achieve ~10^6 CFU/mL. The compounds were tested from 64 to 0.5 mg/L in two-fold serial diluted fashion with 2.5 μL of each concentration added to well of a 96-well round bottom microtiter plate. Later, 97.5 μL of bacterial suspension was added to each well containing either test compound or appropriate controls. […] The MIC is defined as the lowest concentration of the compound at which there is absence of visible growth. For each test compound, MIC determinations were carried out independently three times using duplicate samples.

[8] = test system: MRSA NRS 198; experiment: Broth microdilution MIC, MRSA NRS 198; type: cell-based, S. aureus; settings: Staphylococcus aureus
Procedure: as §1

[9] = test system: VRSA VRS 12; experiment: Broth microdilution MIC, VRSA VRS 12; type: cell-based, S. aureus; settings: Staphylococcus aureus, VRSA
Procedure: as §1

[10] = test system: VRSA VRS 1; experiment: Broth microdilution MIC, VRSA VRS 1; type: cell-based, S. aureus; settings: Staphylococcus aureus, VRSA
Procedure: as §1

[11] = test system: MSSA ATCC 29213; experiment: Broth microdilution MIC, MSSA ATCC 29213; type: cell-based, S. aureus; settings: Staphylococcus aureus
Procedure: as §1

[12] = test system: MRSA NRS 119; experiment: Broth microdilution MIC, MRSA NRS 119; type: cell-based, S. aureus; settings: Staphylococcus aureus
Procedure: as §1

[13] = test system: S. aureus ATCC 29213; experiment: Drug interaction study (chequerboard assay); type: cell-based
Procedure: All compounds were freshly prepared for the experiment. […] Following incubation, the fractional inhibitory concentration index (FICI) was calculated with the formula FICI = […], whereby FICA = MIC of drug A in combination/MIC of drug A alone and FICB = MIC of drug B in combination/MIC of drug B alone. A drug combination is considered synergistic when ∑FICI is ≤0.5, indifferent when ∑FICI is >0.5 to 4, and antagonistic when ∑FICI is >4.

[14] = test system: MRSA NRS 191; experiment: Broth microdilution MIC, MRSA NRS 191; type: cell-based, S. aureus; settings: Staphylococcus aureus
Procedure: as §1

[15] = test system: MRSA NRS 193; experiment: Broth microdilution MIC, MRSA NRS 193; type: cell-based, S. aureus; settings: Staphylococcus aureus
Procedure: as §1

[16] = test system: MRSA NRS 129; experiment: Broth microdilution MIC, MRSA NRS 129; type: cell-based, S. aureus; settings: Staphylococcus aureus
Procedure: as §1

[17] = test system: 36th Passage S.aureus ATCC 29213 in the presence of Pt-1; experiment: microbe, parasite or virus in culture; type: cell-based; settings: Staphylococcus aureus, ATCC29213
Procedure: The MICs of the passaged cultures were determined every 3 days and compared to that of wild type S. aureus ATCC 29213. MIC changes were recorded for 36 passages.

[18] = test system: MRSA NRS 194; experiment: Broth microdilution MIC, MRSA NRS 194; type: cell-based, S. aureus; settings: Staphylococcus aureus
Procedure: as §1

[19] = test system: VRSA VRS 4; experiment: Broth microdilution MIC, VRSA VRS 4; type: cell-based, S. aureus; settings: Staphylococcus aureus, VRSA
Procedure: as §1

[20] = test system: MRSA NRS 100; experiment: Broth microdilution MIC, MRSA NRS 100; type: cell-based, S. aureus; settings: Staphylococcus aureus
Procedure: as §1

[21] = test system: MRSA NRS 186; experiment: Broth microdilution MIC, MRSA NRS 186; type: cell-based, S. aureus; settings: Staphylococcus aureus
Procedure: as §1

[22] = test system: S. aureus ATCC 29213; experiment: Post antibiotic effect (PAE); type: cell-based; settings: for Time for 1 log10 increase in bacterial cfu count: 1 h exposure
Procedure: Post antibiotic effect (PAE) was determined as follows. […] Following incubation, cultures were centrifuged and washed twice with pre-warmed MHBII to remove any traces of antibiotics. Finally, cells were resuspended in drug-free MHBII and incubated further at 37 °C. Samples were taken every 1 h, serially diluted, and plated on tryptic soy agar (TSA) for enumeration of CFU. […] CFU observed immediately after the removal of the drug, and C in a similarly treated drug-free control.

[23] = test system: S. aureus ATCC 29213; experiment: Murine superficial skin infection model; type: in vivo; settings: topical 2% cream, twice daily for 4 days, Swiss mice
Procedure: The in vivo efficacy of Pt1 was determined in a superficial skin infection model. Briefly, male Swiss mice, 4–6 weeks old, weighing ∼22–25 g, were used throughout the study. Mice were caged alone in an individually vented cage (IVC) to check cross-contamination and to maintain aseptic conditions throughout the experiment. Ketamine and xylazine were prepared in distilled water, 40 mg/kg and 8 mg/kg of body weight, respectively, and injected intraperitoneally (IP) as a mixture of 100 μL in each mouse for anaesthesia. Then, we proceeded with the removal of fur by applying depilatory cream. The area was cleaned with sterile distilled water. Approximately 2 cm^2 of skin area was scratched until it became visibly reddened and glistening without any bleeding. For bacterial infection, a 10 μL droplet containing 10^7 CFU/mL of S. aureus ATCC 29213 was applied to the reddened area of skin. To confirm the infection, post 4 h, untreated mice were sacrificed, skin homogenized, and various dilutions of the treatment groups (6 mice per group) were plated on TSA plates. […] Henceforth, the drug regimen was comprised of twice daily application (in the morning and the evening, with an 8 h interval) for 4 days. Control mice were regularly treated with 25–30 mg each of 2% fusidic acid (LEO Pharma, Ballerup, Denmark), 2% infuzide, and base (vehicle). […]

[24] = 60 min, Pt1 3.125 µM, Pt8 25 µM, CisPt 100 µM

N.N.[Cl][Pt][Cl] [CisPt, cisplatin]
DAPI fluorescence intensity [1, 24]: significant reduction of the DAPI signal | nucleoid compaction (cell area vs DAPI-stained nucleoid area) [1, 24]: clear nucleoid compaction | growth and cell length phenotype ([1]; B. subtilis, 100 µM): slight growth defects and a mild cell elongation phenotype | IC50 ([2]; 24 h): 81.6 ± 5.1 µM | IC50 ([2]; 48 h): 22 ± 3.4 µM | RecA accumulation on nucleoids [3]: clear RecA accumulations | MIC ([4]; B. subtilis MW168): >100 µM | MIC ([5]; MSSA clinical isolate): >100 µM | MIC ([6]; MRSA COL): >100 µM

CN[C@H](CC(C)C)C(=O)N[C@H]1C(=O)N[C@@H](CC(N)=O)C(=O)N[C@H]2C(=O)N[C@H]3C(=O)N[C@H](C(=O)N[C@H](C(=O)O)c4cc(O)cc(O)c4-c4cc3ccc4O)[C@H](O)c3ccc(c(Cl)c3)Oc3cc2cc(c3O[C@@H]2O[C@H](CO)[C@@H](O)[C@H](O)[C@H]2O[C@H]2C[C@](C)(N)[C@H](O)[C@H](C)O2)Oc2ccc(cc2Cl)[C@H]1O [Van, Vancomycin]
MIC [7]: 0.67 to 1.34 µM (≈ 0.971 to 1.94 µg/mL) | MIC [8]: 1.34 µM (≈ 1.94 µg/mL) | MIC [9]: > 43.1 µM | MIC [10]: > 43.1 µM | MIC [11]: 1 µg/mL and 0.67 µM | MIC ([4]; Bacillus subtilis, MW168): < 0.22 µM | MIC [12]: 1.34 µM (≈ 1.94 µg/mL) | MIC ([5]; Staphylococcus aureus, MSSA): 0.86 µM (≈ 1.25 µg/mL) | MIC ([13]; Staphylococcus aureus, ATCC29213): 1 µg/mL | FIC B ([13]; antibiotic in combination with Pt1 / alone): 1 | FIC (FICA+FICB) ([13]; combination with Pt1): 2 | Interference ([13]; combination with Pt1, synergistic ≤0.5, indifferent >0.5 to 4, antagonistic >4): no interaction | MIC [14]: 1.34 µM (≈ 1.94 µg/mL) | MIC [15]: 1.34 µM (≈ 1.94 µg/mL) | MIC ([6]; Staphylococcus aureus, MRSA): 0.86 µM (≈ 1.25 µg/mL) | MIC [16]: 0.67 µM (≈ 0.971 µg/mL) | MIC [17]: 1 µg/mL (≈ 0.69 µM) | MIC [18]: 0.67 µM (≈ 0.971 µg/mL) | MIC [19]: > 43.1 µM | MIC [20]: 1.34 µM (≈ 1.94 µg/mL) | MIC [21]: 0.67 µM (≈ 0.971 µg/mL) | PAE ([22]; 1x MIC): ~ 2.5 h | Time for 1 log10 increase in bacterial cfu count ([22]; 1x MIC): ~ 5 h | PAE ([22]; 5x MIC): ~ 2.5 h | Time for 1 log10 increase in bacterial cfu count ([22]; 5x MIC): ~ 5 h | Time for 1 log10 increase in bacterial cfu count ([22]; 10x MIC): ~ 5 h | PAE ([22]; 10x MIC, listed as Vancomycin): ~ 2.5 h | PAE ([22]; 10x MIC, listed as vancomycin): 2.5 h

CC(=O)O[C@H]1C[C@@]2(C)[C@@H](C[C@@H](O)[C@H]3[C@@]4(C)CC[C@@H](O)[C@@H](C)[C@@H]4CC[C@@]32C)/C1=C(\CCC=C(C)C)C(=O)O [fusidic acid]
reduction in bacterial load compared to vehicle-treated group [23]: ~ 2.9 log10 CFU/g
